{"source": "patent US11149086B2", "about": "“KV1.3 binding immunoglobulins” (Ablynx N.V., priority 2014, dated 2021)", "key": {"[1]": {"test_system": "CCR7−CD45RA− T cells", "assay_type": "cell-based, human", "settings": "monovalent Nanobodies", "description": "The purified anti-Kv1.3 Nanobodies were characterized in a T Cell-activation assay. Human T Cells were first collected from Buffy Coat blood (from healthy volunteers, Bloodbank Gent) using RosetteSep (StemCell Technologies, #15061) followed by an enrichment on Ficoll-Paque™ PLUS (GE Healthcare #17-1440-03). CCR7−CD45RA− T cells were isolated through negative selection using biotinylated antibodies against CD45RA (BD Bioscience #624008) and CCR7 (BD Bioscence #624009) in addition to the Dynabeads Biotin Binder (Invitrogen #110.47). […]\nIsolated CCR7^−CD45RA^− T Cells were then stimulated on anti-CD3 (eBioscience 16-0037-85; 540 ng/ml) coated 96-well plates at a concentration of 200 000 cells/well in absence or presence of dilution series of anti-Kv1.3 antibodies and ShK positive control (Smartox, #08SHK001). After 72 h, IFN-gamma production was measured with anti-human IFNγ antibody capture in ELISA (BD Bioscence #551221) combined with biotinylated anti-human IFNγ (BD Bioscience, #554550) and streptavidin-HRP (Dakocytomation #P0397) as detection (FIG. 11A-11B).\nIn addition, also CD25 expression was measured in flow cytometry, using an anti-CD25 antibody (BD Pharmingen, cat 557138) (FIG. 11C-11D). […]"}, "[2]": {"test_system": "DNFB-induced delayed type hypersensitivity in Wistar rats", "test": "DNFB-induced delayed-type hypersensitivity (DTH) rat model, ear swelling", "assay_type": "in vivo", "description": "A delayed-type hypersensitivity (DTH) reaction is an expression of T cell-mediated immunity in response to cutaneous sensitization and challenge with reactive haptens like 2, 4-dinitrofluorobenzene (DNFB), largely mediated by skin-homing effector memory T cells (Azam P et al., J Invest Dermatol 127(6):1419-29, 2007; Matheu M P et al., Immunity 29(4):602-14, 2008). The voltage-gated potassium channel Kv1.3 is expressed in T cells, and is important in maintaining T cell activation (predominantly effector memory T cells).\nFor the purpose of in vivo proof-of-concept, the efficacy of anti-Kv1.3 Nanobodies on DNFB-induced delayed type hypersensitivity in Wistar rats was evaluated. The DTH response in the rats was elicited as follows (see FIG. 37): on day 0 (start of the in-life) and day 1, 100 μl of 1% (wt/vol) DNFB prepared in 4:1 acetone/olive oil was applied to the shaved dorsum for sensitization. On day 5, animals were challenged on both sides of the right ear pinnae of the animals with 50 μl of 0.5% (wt/vol) DNFB prepared in 4:1 acetone: olive oil. […] As positive control, animals were treated with dexamethasone (topical, 0.75 mg at 1 hour and 6 hours post-challenge). On day 5 before DNFB challenge, the baseline right ear pinna thickness was measured, and the net ear swelling response was determined 24 hours after challenge with a spring-loaded micrometer.\nThe DTH response in the rats was elicited as follows (see FIG. 37): on day 0 (start of the in-life) and day 1, 100 μl of 1% (wt/vol) DNFB prepared in 4:1 acetone/olive oil was applied to the shaved dorsum for sensitization. On day 5, animals were challenged on both sides of the right ear pinnae of the animals with 50 μL of 0.5% (wt/vol) DNFB prepared in 4:1 acetone: olive oil. Animals (n=10 rats/group) received two subcutaneous (s.c.) injections of either vehicle, the benchmark compound ShK or the anti-Kv1.3 Nanobody at 12 hours and/or 1 hour preceding the challenge. As positive control, animals were treated with dexamethasone (topical, 0.75 mg at 1 hour and 6 hours post-challenge). On day 5 before DNFB challenge, the baseline right ear pinna thickness was measured, and the net ear swelling response was determined 24 hours after challenge with a spring-loaded micrometer."}, "[3]": {"test_system": "human PBMCs", "test": "IFNγ production by human PBMCs after anti-CD3 with or without anti-CD28 stimulation", "assay_type": "cell-based", "experimental": "The anti-Kv1.3 inhibitory Nanobodies were evaluated for their effect on cytokine secretion by plate-bound anti-CD3/CD28 stimulated PBMCs. ShK was included as reference compound (FIG. 30). This co-stimulation of T-cells with anti-CD3 and anti-CD28 reflects strong immune stimulation as encountered during an acute infection. Single stimulation with anti-CD3 imitates rather the moderate immune stimulation resembling the situation during e.g. an autoimmune disease.\nBriefly, PBMCs were first collected from Buffy Coat blood (from healthy volunteers, Bloodbank Gent) using RosetteSep (StemCell Technologies, #15061) followed by an enrichment on Ficoll-Paque™ PLUS (GE Healthcare #17-1440-03). The purity of the population was afterwards checked with anti-CD3 (eBioscience #12-0037-73); anti-CD8 (BD Bioscience #345775); anti-CD4 (BD Bioscience #345771); anti-CD45RO (BD Bioscience #555493); anti-CD45RA (BD Bioscience #550855) and anti-CD19 (BD Bioscience #555413) fluorescently labeled antibodies in a flow cytometric assay. […] After 72 h, IFN-gamma production was measured with anti-human IFNγ antibody capture in ELISA (BD Bioscence #551221) combined with biotinylated anti-human IFNγ (BD Bioscience, #554550) and streptavidin-HRP (Dakocytomation #P0397) as detection."}, "[4]": {"biological_target": "T1, human Kv1.3 (Homo sapiens, UniProt P22001)", "T1 construct": "cell lines stably expressing the full length human Kv1.3 channel", "T1 sequence (P22001 whole entry)": "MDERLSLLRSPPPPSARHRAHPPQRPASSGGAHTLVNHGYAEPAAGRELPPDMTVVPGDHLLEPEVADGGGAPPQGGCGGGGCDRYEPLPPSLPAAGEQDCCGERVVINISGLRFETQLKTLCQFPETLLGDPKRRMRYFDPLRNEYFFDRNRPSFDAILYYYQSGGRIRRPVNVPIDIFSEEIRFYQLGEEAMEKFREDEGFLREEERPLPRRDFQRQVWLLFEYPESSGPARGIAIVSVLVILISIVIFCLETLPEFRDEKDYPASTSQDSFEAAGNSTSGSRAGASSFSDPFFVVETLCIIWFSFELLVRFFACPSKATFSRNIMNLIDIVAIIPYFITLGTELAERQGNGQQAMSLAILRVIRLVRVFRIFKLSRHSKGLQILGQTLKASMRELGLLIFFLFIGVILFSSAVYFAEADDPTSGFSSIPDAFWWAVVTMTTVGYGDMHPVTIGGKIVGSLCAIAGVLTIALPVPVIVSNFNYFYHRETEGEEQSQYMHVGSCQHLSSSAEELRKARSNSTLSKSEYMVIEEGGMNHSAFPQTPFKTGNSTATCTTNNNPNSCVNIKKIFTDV", "test": "FACS competition with FAM-labeled ShK on HEK293H human Kv1.3 cells", "assay_type": "binding", "settings": "70 nM ShK-FAM", "experimental": "To evaluate the competition between the toxin ShK and the Nanobodies for binding to Kv1.3, a FACS competition experiment was performed using HEK293H cells overexpressing human Kv1.3 and the parental HEK293H cells as background cell line. As detection reagent, FAM-labeled ShK was used (6-FAM-AEEAc-Stichodactyla helianthus Neurotoxin (ShK) (Bachem, H-6088, 1046522, PRT00000366/01/01)). To setup the assay, first a titration series of the labeled Shk-FAM was performed on the HEK293H Kv1.3 cells in order to determine the EC50 value for binding.\nIn brief, a dilution series of ShK or Nanobody were added together with the labeled toxin to 200 000 cells in a 96-well plate. After 90 minutes incubation at 4° C., cells were washed three times before read out was performed on a FACS Canto (Becton Dickinson). First a gate was set on the intact cells as determined from the scatter profile. Next, dead cells were gated out by their fluorescence profile from the TOPRO stain (5 nM, Molecular probes, T3605). […] The percentage of inhibition for Nanobodies blocking the interaction of ShK to human Kv1.3 is depicted in Table B-11."}}, "note": "Bridge positions count the residues as written; N and C are the ends. Peptide text beside a SMILES is read from it."}
{"compound": "CC[C@H](C)[C@H](NC(=O)[C@@H](N)[C@@H](C)O)C(=O)N[C@H](C(=O)N[C@@H](CC(N)=O)C(=O)N[C@H](C(=O)N[C@@H](CCCCN)C(=O)N[C@H]1CSSC[C@@H]2NC(=O)[C@H](CCCCN)NC(=O)[C@H](C)NC(=O)CNC(=O)[C@H](C)NC(=O)[C@H](CO)NC(=O)[C@H](CCC(N)=O)NC(=O)CNC(=O)[C@H](Cc3ccccc3)NC(=O)[C@H](CCC(N)=O)NC(=O)[C@H](C)NC(=O)[C@H](CCCCN)NC(=O)[C@@H]3CSSC[C@@H](C(=O)N[C@@H](Cc4ccc(O)cc4)C(=O)N4CCC[C@H]4C(=O)N[C@@H](Cc4c[nH]cn4)C(=O)O)NC(=O)[C@H](CCCCN)NC(=O)[C@H](CSSC[C@H](NC(=O)[C@H](CCC(N)=O)NC(=O)[C@H](CCCCN)NC(=O)[C@@H]4CCCN4C(=O)[C@H](CO)NC(=O)[C@H]([C@@H](C)O)NC1=O)C(=O)N[C@@H](CC(C)C)C(=O)N1CCC[C@H]1C(=O)N1CCC[C@H]1C(=O)N3)NC(=O)[C@H](CCCCN)NC(=O)CNC(=O)[C@H](CC(N)=O)NC(=O)[C@H](CCSC)NC2=O)C(C)C)[C@@H](C)CC", "note": "[MgTX, margatoxin, reference compound] (H-TIINVKCTSPKQCLPPCKAQFGQSAGAKCMNGKCKCYPH-OH; disulfide 7-29, 13-34, 17-36; N-terminus and C-terminus assumed)", "values": [{"measurement": "IC50 (in M) CD25 read out", "setting": "[1]; plate bound anti-CD3", "value": "no fit"}, {"measurement": "IC50", "setting": "[1]; plate bound anti-CD3, 72 h, read-out: IC50 (in M) IFNγ read out", "value": 0.094, "unit": "nM"}]}
{"compound": "CC[C@H](C)[C@@H]1NC(=O)[C@@H](NC(=O)[C@H](CO)NC(=O)[C@@H](N)CCCNC(=N)N)CSSC[C@@H](C(=O)O)NC(=O)[C@H]([C@@H](C)O)NC(=O)CNC(=O)[C@@H]2CSSC[C@@H]3NC(=O)[C@H](CCC(N)=O)NC(=O)[C@H](Cc4ccccc4)NC(=O)[C@H](C)NC(=O)[C@H]([C@@H](C)O)NC(=O)[C@H](CSSC[C@H](NC(=O)[C@H](Cc4ccccc4)NC(=O)[C@H](CO)NC(=O)[C@H](CC(C)C)NC(=O)[C@H](CCCNC(=N)N)NC(=O)[C@H](Cc4ccc(O)cc4)NC(=O)[C@H](CCCCN)NC(=O)[C@H](CCSC)NC(=O)[C@H](CO)NC(=O)[C@H](Cc4c[nH]cn4)NC(=O)[C@H](CCCCN)NC3=O)C(=O)N[C@@H](CCCNC(=N)N)C(=O)N[C@@H](CCCCN)C(=O)N[C@@H]([C@@H](C)O)C(=O)N2)NC(=O)[C@H](CCCNC(=N)N)NC(=O)[C@H](CO)NC(=O)[C@H](CCCCN)NC(=O)[C@@H]2CCCN2C(=O)[C@H]([C@@H](C)CC)NC(=O)[C@H]([C@@H](C)O)NC(=O)[C@H](CC(=O)O)NC1=O", "note": "[ShK]", "values": [{"measurement": "mean increase in ear thickness", "setting": "[2]; Example 12, two s.c. injections of 10 μg/kg, 12 h and 1 h pre-challenge", "value": "0.213±0.019", "unit": "mm"}, {"measurement": "mean increase in ear thickness", "setting": "[2]; Example 13, two s.c. injections of 100 μg/kg", "value": "0.136±0.024", "unit": "mm"}, {"measurement": "IFNγ production, PBMCs co-stimulated with anti-CD3 and anti-CD28", "setting": "[3]; anti-CD3 and anti-CD28, 72 h", "value": "do not inhibit"}, {"measurement": "IFNγ production, PBMCs stimulated with anti-CD3 only", "setting": "[3]; single anti-CD3 stimulation, 72 h", "value": "Inhibition"}, {"measurement": "blocking of FAM labeled ShK binding to Kv1.3, in words", "setting": "[4]", "value": "completely blocked"}]}
{"compound": "C[C@@H]1C[C@H]2[C@@H]3CCC4=CC(=O)C=C[C@]4(C)[C@@]3(F)[C@@H](O)C[C@]2(C)[C@@]1(O)C(=O)CO", "note": "[dexamethasone]", "values": [{"measurement": "mean increase in ear thickness", "setting": "[2]; Example 12, topical 0.75 mg at 1 h and 6 h post-challenge, 24 h after challenge", "value": "0.027±0.017", "unit": "mm"}, {"measurement": "mean increase in ear thickness", "setting": "[2]; Example 13, topical 0.75 mg at 1 h and 6 h post-challenge", "value": "0.018±0.016", "unit": "mm"}]}
